# Patent EP1337551B1, “SUBSTANCE P ANALOGS FOR THE TREATMENT OF CANCER” (DABUR PHARMA LTD., priority 2000, dated 2002)
# Non-standard residues stand in square brackets, D forms with d. Residues, ends and D or L forms follow the SMILES beside them. pHOPA = not defined here
# What was measured:
# KB (oral) = test: In vitro cytotoxic activity, MTT assay, 72 hours; type: cell-based, human
# Procedure: (§1) The cytotoxic activity of synthesized peptides was tested on six human tumor cell lines namely MCF7 (breast), U373 (glioblastoma), PTC, (colon), L132 (lung), Su.86.86 (pancreas), and KB (oral). The tumor cells were collected at exponential growth phase and resuspended in medium (1.5 x 10^6 cells/ml in RPMI 1640 containing 10% FBS). 150µL of medium was added to the wells of a 96-well tissue culture plate (Nunc, Denmark) followed by 30µl of cell suspension. The plate was left in an incubator (37°C, 5% CO2) overnight. 20µl of the peptide (100 pM to 10 µM concentration) was added to marked wells of the 96-well plate. Each concentration was plated in triplicate. 20µl of medium alone was added to control wells while wells without cells served as blanks. A total volume of 200µL was ensured in each well and plate was left in incubator (37°C, 5% CO2). After 72 hours of incubation an MTT assay was performed and percentage cytotoxicity was calculated with respect to control cells.
# L132 (lung) = test: In vitro cytotoxic activity, MTT assay, 72 hours; type: cell-based, human
# Procedure: as §1
# MCF7 (breast) = test: In vitro cytotoxic activity, MTT assay, 72 hours; type: cell-based, human
# Procedure: as §1
# PTC, (colon) = test: In vitro cytotoxic activity, MTT assay, 72 hours; type: cell-based, human
# Procedure: as §1
# Su.86.86 (pancreas) = test: In vitro cytotoxic activity, MTT assay, 72 hours; type: cell-based, human
# Procedure: as §1
# U373 (glioblastoma) = test: In vitro cytotoxic activity, MTT assay, 72 hours; type: cell-based, human
# Procedure: as §1
# ECV304 (Endothelial) = test: In vitro cytotoxic activity of lipo conjugates, MTT assay, 48 hours; type: cell-based
# Procedure: (§2) The cytotoxic effect of lipo-conjugates of substance P analogs SEQ ID NO: 6, SEQ ID NO: 7 and SEQ ID NO: 8, was studied by MTT assay which is based on the principle of uptake of MTT [3-[4,5-dimethylthiazol-2-yl]-2,5-diphenyl tetrazolium bromide], a tetrazolium salt by the metabolically active cells where it is metabolized by active mitochondria in to a blue colored formazan product which can be read spectrophotometrically. Briefly, tumor cells - KB (Oral squamous), U87MG (Blioblastoma), HBL100 (Breast), HeP2 (Larngeal), ECV304 (Endothelial), PA-1 (Ovary) and L132 (Lunng) were incubated with the peptide analogs for 48 hours at 37°C in a 96-well culture plate, followed by the addition of 100 µg MTT and further incubation of 1 hour. The formazan crystals formed inside the cells were dissolved with a detergent comprising of 10% Sodium dodecyl sulfate and 0.01 N HCl and optical density read on a multiscan ELISA reader. The optical density was directly proportional to the number of proliferating and metabolically active cells. SEQ ID NO: 6
# HBL100 (Breast) = test: as above; type: cell-based
# Procedure: as §2
# HeP2 (Larngeal) = test: as above; type: cell-based
# Procedure: as §2
# KB (Oral squamous) = test: as above; type: cell-based
# Procedure: as §2
# L132 (Lunng) = test: as above; type: cell-based
# Procedure: as §2
# PA-1 (Ovary) = test: as above; type: cell-based
# Procedure: as §2
# U87MG (Blioblastoma) = test: as above; type: cell-based
# Procedure: as §2
# SCLC = conditions: inhibition of SCLC proliferation; cited from earlier work
# [1] = test system: H-510 and H-69 SCLC cells; conditions: proliferation of H-510 and H-69 SCLC cells in liquid culture and in semi-solid media; cited from earlier work
molecule,measurement,setting,value
"CCCC(=O)N[C@H](CCCNC(=N)N)C(=O)N1CCC[C@H]1C(=O)N[C@@H](CCCCN)C(=O)N1CCC[C@H]1C(=O)N[C@H](Cc1ccccc1)C(=O)N[C@@H](CCC(N)=O)C(=O)N[C@H](Cc1c[nH]c2ccccc12)C(=O)N[C@@H](Cc1ccccc1)C(=O)N[C@H](Cc1c[nH]c2ccccc12)C(=O)N[C@@H](CC(C)C)C(=O)NC1(C(N)=O)CCCC1 [SEQ ID NO: 7, Butanoyl-D-Arg-Pro-Lys-Pro-D-Phe-Gln-D-Trp-Phe-D-Trp-Leu-Ac5c-NH2] (HELM PEPTIDE1{[CCCC(=O)[*:2]].[dR].P.K.P.[dF].Q.[dW].F.[dW].L.[O=C(C1(N[*:1])CCCC1)[*:2]].[am]}$$$$V2.0)",Percentage cytotoxicity at different concentrations,KB (oral); 100pM,Nil
same,Percentage cytotoxicity at different concentrations,KB (oral); 1nM,6 ± 0.9%
same,Percentage cytotoxicity at different concentrations,KB (oral); 10nM,10 ± 3.4%
same,Percentage cytotoxicity at different concentrations,KB (oral); 100nM,10 ± 4.9%
same,Percentage cytotoxicity at different concentrations,KB (oral); 1µM,4 ± 2.6%
same,Percentage cytotoxicity at different concentrations,KB (oral); 10µM,15 ± 2.3%
same,Percentage cytotoxicity at different concentrations,L132 (lung); 100pM,14 ± 3.4%
same,Percentage cytotoxicity at different concentrations,L132 (lung); 1nM,25 ± 8%
same,Percentage cytotoxicity at different concentrations,L132 (lung); 10nM,19 ± 3.3%
same,Percentage cytotoxicity at different concentrations,L132 (lung); 100nM,9 ± 2.3%
same,Percentage cytotoxicity at different concentrations,L132 (lung); 1µM,9 ± 2.3%
same,Percentage cytotoxicity at different concentrations,L132 (lung); 10µM,15 ± 2.3%
same,Percentage cytotoxicity at different concentrations,"MCF7 (breast); MCF-7, 100pM",19.3 ±1.8%
same,Percentage cytotoxicity at different concentrations,"MCF7 (breast); MCF-7, 1nM",20.55 ± 3.1%
same,Percentage cytotoxicity at different concentrations,"MCF7 (breast); MCF-7, 10nM",5.7 ± 1.5%
same,Percentage cytotoxicity at different concentrations,"MCF7 (breast); MCF-7, 100nM",15.4 ± 0.7%
same,Percentage cytotoxicity at different concentrations,"MCF7 (breast); MCF-7, 1µM",11.7 ± 5.1%
same,Percentage cytotoxicity at different concentrations,"MCF7 (breast); MCF-7, 10µM",19.7 ±5%
same,Percentage cytotoxicity at different concentrations,"PTC, (colon); 100pM",Nil
same,Percentage cytotoxicity at different concentrations,"PTC, (colon); 1nM",Nil
same,Percentage cytotoxicity at different concentrations,"PTC, (colon); 10nM",5.8 ± 0.2%
same,Percentage cytotoxicity at different concentrations,"PTC, (colon); 100nM",5.3 ± 0.2%
same,Percentage cytotoxicity at different concentrations,"PTC, (colon); 1µM",11.7 ± 3.0%
same,Percentage cytotoxicity at different concentrations,"PTC, (colon); 10µM",27.3 ± 5.4%
same,Percentage cytotoxicity at different concentrations,"Su.86.86 (pancreas); Su8686, 100pM",6 ± 1.8%
same,Percentage cytotoxicity at different concentrations,"Su.86.86 (pancreas); Su8686, 1nM",25 ± 5.3%
same,Percentage cytotoxicity at different concentrations,"Su.86.86 (pancreas); Su8686, 10nM",10 ± 2.8%
same,Percentage cytotoxicity at different concentrations,"Su.86.86 (pancreas); Su8686, 100nM",15 ± 3.8%
same,Percentage cytotoxicity at different concentrations,"Su.86.86 (pancreas); Su8686, 1µM",36 ± 3.3%
same,Percentage cytotoxicity at different concentrations,"Su.86.86 (pancreas); Su8686, 10µM",38 ± 4.3%
same,Percentage cytotoxicity at different concentrations,U373 (glioblastoma); 100pM,10.9 ± 1.0%
same,Percentage cytotoxicity at different concentrations,U373 (glioblastoma); 1nM,13.4 ± 4.6%
same,Percentage cytotoxicity at different concentrations,U373 (glioblastoma); 10nM,6.6 ± 0.7%
same,Percentage cytotoxicity at different concentrations,U373 (glioblastoma); 100nM,8.8 ± 0.2%
same,Percentage cytotoxicity at different concentrations,U373 (glioblastoma); 1µM,8.3 ± 0.5%
same,Percentage cytotoxicity at different concentrations,U373 (glioblastoma); 10µM,21.1 ± 1.7%
same,Percentage cytotoxicity at different concentrations,ECV304 (Endothelial); 1nM,13.9 ± 4.5%
same,Percentage cytotoxicity at different concentrations,ECV304 (Endothelial); 10nM,16.5 ± 3.3%
same,Percentage cytotoxicity at different concentrations,ECV304 (Endothelial); 100nM,20.9 ± 2.3%
same,Percentage cytotoxicity at different concentrations,ECV304 (Endothelial); 1µM,6.0 ± 2.4%
same,Percentage cytotoxicity at different concentrations,HBL100 (Breast); 1nM,13.9 ± 3.5%
same,Percentage cytotoxicity at different concentrations,HBL100 (Breast); 10nM,22.9 ± 3.8%
same,Percentage cytotoxicity at different concentrations,HBL100 (Breast); 100nM,23.9 ± 1.7%
same,Percentage cytotoxicity at different concentrations,HBL100 (Breast); 1µM,22.8 ± 1.4%
same,Percentage cytotoxicity at different concentrations,HeP2 (Larngeal); 1nM,16.4 ± 3.2%
same,Percentage cytotoxicity at different concentrations,HeP2 (Larngeal); 10nM,19.8 ± 4.8%
same,Percentage cytotoxicity at different concentrations,HeP2 (Larngeal); 100nM,24.7 ± 2.5%
same,Percentage cytotoxicity at different concentrations,HeP2 (Larngeal); 1µM,12.9 ± 1.4%
same,Percentage cytotoxicity at different concentrations,KB (Oral squamous); 1nM,20.9 ± 3.6%
same,Percentage cytotoxicity at different concentrations,KB (Oral squamous); 10nM,21.9 ± 4.1%
same,Percentage cytotoxicity at different concentrations,KB (Oral squamous); 100nM,18.0 ± 5.2%
same,Percentage cytotoxicity at different concentrations,KB (Oral squamous); 1µM,9.0 ± 5.3%
same,Percentage cytotoxicity at different concentrations,L132 (Lunng); 1nM,14.9 ± 4.9%
same,Percentage cytotoxicity at different concentrations,L132 (Lunng); 10nM,24.7 ± 3.5%
same,Percentage cytotoxicity at different concentrations,L132 (Lunng); 100nM,18.5 ± 3.6%
same,Percentage cytotoxicity at different concentrations,L132 (Lunng); 1µM,12.9 ± 2.4%
same,Percentage cytotoxicity at different concentrations,PA-1 (Ovary); 1nM,12.7 ± 3.5%
same,Percentage cytotoxicity at different concentrations,PA-1 (Ovary); 10nM,26.7 ± 2.4%
same,Percentage cytotoxicity at different concentrations,PA-1 (Ovary); 100nM,32.9 ± 2.6%
same,Percentage cytotoxicity at different concentrations,PA-1 (Ovary); 1µM,23.7 ± 3.3%
same,Percentage cytotoxicity at different concentrations,U87MG (Blioblastoma); 1nM,22.9 ± 2.3%
same,Percentage cytotoxicity at different concentrations,U87MG (Blioblastoma); 10nM,27.8 ± 2.2%
same,Percentage cytotoxicity at different concentrations,U87MG (Blioblastoma); 100nM,21.8 ± 1.2%
same,Percentage cytotoxicity at different concentrations,U87MG (Blioblastoma); 1µM,14.8 ± 1.4%
D-MePhe-D-Trp-Phe-D-TrpLeu(psi)-(CH2NH)-Leu-NH2 [Analog 6],IC50,SCLC,2 µM
D-MePhe-D-Trp-Phe-DTrp-Leu-MPA [Analog 7],IC50,SCLC,5 µM
"[D-Arg^1, D-Phe^5, D-Trp^7,9, Leu^11] substance P [Antagonist D]",IC50,[1],5 µM
pHOPA-D-Trp-Phe-D-Trp-Leu-Leu-NH2 (pHOPA-[dW]F[dW]LL-NH2; reading uncertain) [Analog R],IC50,SCLC,10 µM
